How the values were obtained:
cultured taste cells = test: Response of cultured taste cells to taste stimuli by Ca-imaging (fura-2); assay type: cell-based, rat; conditions: elevation of intracellular calcium
Experimental: Taste cells employed are isolated as described in Example 1 and cultured for 1 week or 2 months on rat tail collagen type 1-coated coverslips.
(§1) Ca-imaging is performed as follows. The coverslips are incubated for 15-30 minutes with calcium sensitive dye in Modified MHNK ringer's solution (80 mM NaCl, 5 mM KCl, 1 mM MgCl2, 1 mM CaCl2, 1 mM Na-pyruvate, and 20 mM Hepes-Na, pH 7.2 with osmolarity adjusted to 300-310 by 5M NaCl) supplemented with […] (Molecular Probes Inc., Eugene, Oreg.) and 20 mg/ml PLURONIC® F127 (Molecular Probes Inc.). The calcium sensitive dye fura-2 AM is cleaved to fura-2 which is fluorescent and can be detected.
After incubation, coverslips are placed in a recording chamber and continuously bathed with Modified MHNK Ringer's solution that is applied as superfusion.
The stimuli (Denatonium benzoate 2 mM and 0.5 mM, Acesulfame K 250 ppm, Monosodium glutamate (MSG) 3 mM, Cycloheximide 25 μM, Glycine 125 mM, and High K buffer (modified Modified MHNK ringer's solution with 5 mM NaCl, 80 mM KCl, 1 mM MgCl2, 1 mM CaCl2, 1 mM Na-pyruvate, and 20 mM Hepes-Na, pH 7.2 with osmolarity adjusted to 300-310 by 5M NaCl) are applied to the coverslip by switching the superfusion to the stimulus solution, which allows for a complete change of bath solutions in the chamber within 10 seconds.
Calcium imaging recordings are performed using standard imaging techniques as described by Restrepo D., M. Zviman and N. E. Rawson, “The measurement of intracellular calcium in chemosensory cells”, in: Methods in Chemosensory Research, Ed. by A. Spielman and J. Brand. CRC Press, 1995. […] Emitted light from fura-2 in the cells under 200× magnification is filtered at 510 nm and recorded with a cooled CCD camera (Olympix, Perkin Elmer Life Sciences, Bethesda Md.). The excitation wavelength is 340-380 nm and the emission wavelength is 510 nm using a wide band filter. Images are digitalized using a Merlin Imaging Workstation (Perkin Elmer Life Sciences, Bethesda Md.), which controls illuminator, camera, and acquisition, and performs the image ratioing and the display of pseudocolor images.
Stimuli are diluted in Modified MHNK ringer's solution and applied via a gravity-flow superfusion apparatus for about 10-60 seconds, depending on the stimulus. […] Typically several cells are tested.

human T2R16 = biological target: T1, human T2R16 (Homo sapiens, UniProt Q9NYV7); test: Calcium imaging of cultured taste cells transfected with hT2R16; assay type: cell-based
T1 construct: expressed in transfected cells; host or cells: primary cultured rat taste cells on rat tail collagen-1-coated coverslips
T1 sequence (Q9NYV7 1-291): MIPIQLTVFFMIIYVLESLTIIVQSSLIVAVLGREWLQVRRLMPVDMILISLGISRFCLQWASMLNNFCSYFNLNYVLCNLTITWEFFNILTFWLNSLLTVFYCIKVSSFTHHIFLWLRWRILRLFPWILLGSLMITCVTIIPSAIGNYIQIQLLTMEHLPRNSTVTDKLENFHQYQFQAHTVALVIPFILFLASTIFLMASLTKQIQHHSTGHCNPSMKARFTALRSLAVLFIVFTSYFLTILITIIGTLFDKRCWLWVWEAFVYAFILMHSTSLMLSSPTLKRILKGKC
Experimental: as §1
(§2) Calcium imaging recordings are performed using standard imaging techniques as described by Restrepo D., M. Zviman and N. E. Rawson, “The measurement of intracellular calcium in chemosensory cells”, in: Methods in Chemosensory Research, Ed. by A. Spielman and J. Brand. CRC Press, 1995. Illumination is provided by a LSR SPECTRAMASTER monochromator coupled to the microscope. Emitted light from fura-2 in the cells under 200× magnification is filtered at 510 nm and recorded with a cooled CCD camera (Olympix, Perkin Elmer Life Sciences, Bethesda Md.). The excitation wavelength is 340-380 nm and the emission wavelength is 510 nm using a wide band filter. Images are digitalized using a Merlin Imaging Workstation (Perkin Elmer Life Sciences, Bethesda Md.), which controls illuminator, camera, and acquisition, and performs the image ratioing and the display of pseudocolor images. […]

mouse T2R5 = biological target: T2, mouse T2R5 (Mus musculus, UniProt Q9JKT4); test: Calcium imaging of cultured taste cells transfected with mT2R5; assay type: cell-based
T2 construct: sst (N-terminal export tag; by own knowledge of Bufe et al. 2002, the first 45 residues of rat somatostatin receptor type 3) (N); expressed in transfected cells; host or cells: primary cultured rat taste cells on rat tail collagen-1-coated coverslips
T2 sequence (Q9JKT4 1-300): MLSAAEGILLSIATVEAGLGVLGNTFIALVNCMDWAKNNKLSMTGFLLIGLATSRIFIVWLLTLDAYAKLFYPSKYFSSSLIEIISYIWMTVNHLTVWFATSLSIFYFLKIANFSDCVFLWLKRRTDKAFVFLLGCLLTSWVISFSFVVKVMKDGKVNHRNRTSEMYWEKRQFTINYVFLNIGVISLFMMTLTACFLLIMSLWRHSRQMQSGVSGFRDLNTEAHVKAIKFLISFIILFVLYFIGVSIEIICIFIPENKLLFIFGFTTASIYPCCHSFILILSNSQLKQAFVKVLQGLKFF
Experimental: as §1, §2

| effective concentration for increase in intracellular calcium (human T2R16) [milliM] | SMILES | activation of cultured taste cells by taste stimulants as shown by calcium imaging (cultured taste cells) | effective concentration for increase in intracellular calcium (mouse T2R5) [µM] |
| --- | --- | --- | --- |
| – | CC[N+](CC)(CC(=O)Nc1c(C)cccc1C)Cc1ccccc1 [Denatonium, Denatonium benzoate] | activated | – |
| – | NCC(=O)O [Glycine] | activated | – |
| – | CC1=CC(=O)NS(=O)(=O)O1.[K] [Acesulfame K, 6-Methyl-1,2,3-oxathiazin-4(3H)-one 2,2-dioxide potassium salt] | activated | – |
| – | N[C@@H](CCC(=O)O)C(=O)[O-].[Na+] [MSG, Monosodium glutamate] | activated | – |
| 1 | OC[C@H]1O[C@@H](Oc2ccccc2)[C@H](O)[C@@H](O)[C@@H]1O [phenyl-beta-D-glucopyranoside] | – | – |
| – | CC1CC(C)C(=O)C(C(O)CC2CC(=O)NC(=O)C2)C1 (stereo not shown) [Cycloheximide, 3-[2-(3,5-Dimethyl-2-oxocyclohexyl)-2-hydroxyethyl]glutarimide] | activated | 1 |

Source: US8460925B2, “Methods for culturing mammalian taste cells” (priority 2004, dated 2013)
